Data reported in patent US5115017A, “Polyvinyl oleate as a fat replacement” (Nabisco Brands, Inc., priority 1989, dated 1992).

Molecular target: T1, porcine pancreatic lipase (Sus scrofa, UniProt P00591)
T1 construct: purchased U.S. Biochemical Corporation
T1 sequence (P00591 1-450): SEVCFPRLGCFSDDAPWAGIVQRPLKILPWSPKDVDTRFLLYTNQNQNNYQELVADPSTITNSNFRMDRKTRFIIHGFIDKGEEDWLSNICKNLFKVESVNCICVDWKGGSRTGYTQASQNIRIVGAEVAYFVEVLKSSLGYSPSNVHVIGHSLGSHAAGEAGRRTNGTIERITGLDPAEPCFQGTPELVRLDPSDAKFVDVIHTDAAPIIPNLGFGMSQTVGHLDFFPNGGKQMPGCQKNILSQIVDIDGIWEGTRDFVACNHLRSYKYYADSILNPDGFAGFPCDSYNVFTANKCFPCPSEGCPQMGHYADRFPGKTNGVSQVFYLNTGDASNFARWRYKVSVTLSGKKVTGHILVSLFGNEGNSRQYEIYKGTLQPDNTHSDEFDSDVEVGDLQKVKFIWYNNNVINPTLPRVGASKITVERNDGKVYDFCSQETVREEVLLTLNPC
Assay: in vitro digestibility (lipase hydrolysis) screening test
Format: biochemical
Conditions: in 10 minutes with this enzyme system, 37° C., pH 7.1 phosphate buffer; triglyceride control
Procedure: This example outlines the procedure for estimating the in vitro digestibility of the polyvinyl esters of this invention.
Buffer: A pH 7.1 phosphate buffer is prepared by dissolving 6.8 g. KH2 PO4 in 1 L. of millipore filtered water (to yield 0.05M phosphate). Fifty mg. Ca(NO3)2 and 5.0 g. cholic acid (Na salt, an ox bile isolate from Sigma) are added to give 300 microM Ca^++ and 0.5% cholic acid in 0.05M phosphate. The pH is adjusted to approximately 7.1 with solid NaOH. Several drops of Baker "Resi-analyzed" toluene are added to prevent bacterial growth during storage at 3-5° C.
Lipase: About 15 mg./mL commercial porcine pancreatic lipase from U.S. Biochemical Corporation is dissolved in buffer.
(The proper concentration may be approximated by doubling the molecular weight of the lipid in question, dividing by 10, and diluting to the mark; this yields about 200 nanomoles per microliter.) This preparation affords the substrate to be used in the hydrolysis reactions. Fatty acids and glyceride standards from Nu Chek or Sigma are prepared for elution on TLC plates (prewashed with 1:1 chloroform/methanol) by diluting the substrate solution with 10:1 toluene (1 part substrate plus 9 parts toluene) in septum vials. […]

CCCCCCCC/C=C\CCCCCCCC(=O)OCC(COC(=O)CCCCCCC/C=C\CCCCCCCC)OC(=O)CCCCCCC/C=C\CCCCCCCC [triolein]
hydrolysis by pancreatic lipase (in vitro digestibility): substantially hydrolyzed
